Experimental data taken from PMC10975611, “Heterocycles 52: The Drug-Likeness Analysis of Anti-Inflammatory Thiazolo[3,2-b][1,2,4]triazole and Imidazo[2,1-b][1,3,4]thiadiazole Derivatives” (Pharmaceuticals, 2024).

What was measured:
[1] = Lipophilicity by reversed-phase thin-layer chromatography (RP-TLC), isopropanol-water mobile phase; type: physicochemical; conditions: for mRM (arithmetic mean of the experimental retention factors RM): RP-18F254s plates, isopropanol 70–90% in water; for RM0 (relative lipophilicity, RM extrapolated to pure water): Soczewinski Wachtmeister equation, isopropanol 70–90%; for PC1(RM): score of first principal component of RM values at isopropanol 70–90%; for b (slope): slope of RM versus isopropanol concentration; for φ0 (chromatographic hydrophobic index): φ0 = RM0/b; for lipophilicity (in words): chromatographic lipophilicity profile / lipophilicity descriptors
Protocol: Lipophilicity was assessed by RP-TLC, using RP-[…] standard silica gel plates (20 × 10 cm) as the stationary phase. An isopropanol:water binary mixture was used as the mobile phase, with different isopropanol concentrations 70%, 75%, 80%, 85%, 90% for thiazolo[3,2-b][1,2,4]triazole (1a–16a) and imidazo[2,1-b][1,3,4]thiadiazole (1b–16b) compounds.
The standard solutions (1 mg/mL) used to investigate the lipophilicity of the synthesized compounds were prepared in dichloromethane (1a–16a compounds) and dimethylsulfoxide (1b–16b compounds). From the obtained solutions, 2 µL was applied manually on the chromatographic plates, at 15 mm from the baseline and 5 mm from the edges of the plate at a spot distance of 12 mm. This procedure was repeated three times. The chromatographic plate upward elution was performed in a chromatographic chamber previously saturated for 30 min with mobile phase, at normal atmospheric pressure and room temperature. The migration distance of the eluent was 80 mm. The chromatographic plates were visually inspected under UV light at λ = 254 nm to identify the compounds. In order to minimize possible experimental errors, three measurements were performed for each mobile phase. The retention factors (Rf) were calculated as the average of three determinations in each case.
Based on the Rf values, a variety of parameters can be determined to estimate the lipophilicity of the compounds. The isocratic retention factor (RM) was determined using the Bate–Smith and Westall equation [34]:RM = log(1/Rf − 1) where Rf = x/y and x = the migration distance of the compound, and y = the migration distance of the solvent front.
There is usually a linear correlation between the RM values and the concentration of the organic component in the mobile phase. For a better estimation of lipophilicity, RM0 was determined as the extrapolated retention factor, considering pure water as the mobile phase (Soczewinski Wachtmeister equation):RM = RM0 + bC where b is the slope of the curve, which indicates the rate at which the solubility of the compound increases in the mobile phase, C is the concentration of the isopropanol in the mobile phase, and RM0 is the RM of the compound when the concentration of isopropanol is zero (extrapolated value).
To estimate the lipophilicity of the compounds, φ0, representing the chromatographic hydrophobicity index, was also determined. It corresponds to the percentage (by volume) of the organic component in the mobile phase and can be determined according to the following formula:φ0 = RM0/b
In order to assess the lipophilicity of compounds, other more relevant lipophilicity parameters have been used, such as the arithmetic mean of the experimental retention factors (mRM), and the score associated with the first principal component (PC1(RM)) obtained by applying principal component analysis (PCA) to the retention parameters RM [35, 36]. The determination of these parameters eliminates the errors that appear during the extrapolation procedure (when determining RM0) so that the results are more accurate.

[2] = parameters: method as in doi:10.31925/farmacia.2018.5.20, PMID 30248903; conditions: acute inflammation, compared to diclofenac; cited from earlier work
[3] = parameters: method as in doi:10.31925/farmacia.2018.5.20, PMID 30248903; conditions: in vivo; cited from earlier work

| Compound | mRM (arithmetic mean of the experimental retention factors RM) [1] | RM0 (relative lipophilicity, RM extrapolated to pure water) [1] | PC1(RM) [1] | b (slope) [1] | φ0 (chromatographic hydrophobic index) [1] | lipophilicity (in words) [1] | in vivo anti-inflammatory activity [2] | pain threshold [3] |
| --- | --- | --- | --- | --- | --- | --- | --- | --- |
| FC(F)(F)c1ccc(-c2cn3nc(-c4ccccc4)sc3n2)cc1 [Compound 3b] | 0.062 | 2.410 | −0.331 | −0.029 | 81.96 | – | – | – |
| COc1ccc(-c2nn3cc(-c4ccc(Br)cc4)nc3s2)cc1 [Compound 10b] | 0.222 | 1.990 | −0.899 | −0.022 | 90.04 | high lipophilicity | – | – |
| COc1ccc(-c2cn3nc(-c4ccccc4)sc3n2)cc1 [Compound 4b] | 0.071 | 1.805 | −0.362 | −0.022 | 83.16 | low lipophilicity | significantly reduced acute inflammation in vivo | increased pain threshold |
| NS(=O)(=O)c1ccc(-c2nn3cc(-c4ccc(Br)cc4)nc3s2)cc1 [Compound 14b] | −0.416 | 1.399 | 1.382 | −0.023 | 62.17 | – | – | – |
| FC(F)(F)c1ccc(-c2cn3nc(-c4ccc(Cl)cc4)sc3n2)cc1 [Compound 7b] | 0.086 | 2.468 | −0.414 | −0.030 | 82.28 | – | – | – |
| Clc1ccc(-c2nn3cc(-c4ccc(Br)cc4)nc3s2)cc1 [Compound 6b] | 0.239 | 2.454 | −0.960 | −0.028 | 87.94 | the most lipophilic compounds | – | – |
| COc1ccc(-c2cn3nc(-c4ccc(Cl)cc4)sc3n2)cc1 [Compound 8b] | 0.148 | 2.183 | −0.634 | −0.026 | 84.92 | – | – | – |
| COc1ccc(-c2cn3nc(-c4ccc(S(N)(=O)=O)cc4)sc3n2)cc1 [Compound 16b] | −0.511 | 0.938 | 1.723 | −0.018 | 52.12 | – | – | – |
| COc1ccc(-c2nn3cc(-c4ccc(C(F)(F)F)cc4)nc3s2)cc1 [Compound 11b] | 0.110 | 1.973 | −0.498 | −0.023 | 84.69 | – | – | – |
| NS(=O)(=O)c1ccc(-c2nn3cc(-c4ccc(C(F)(F)F)cc4)nc3s2)cc1 [Compound 15b] | −0.504 | 1.725 | 1.693 | −0.028 | 62.28 | – | – | – |

Further lines, with some results ahead:

| mRM (arithmetic mean of the experimental retention factors RM) [1] | RM0 (relative lipophilicity, RM extrapolated to pure water) [1] | PC1(RM) [1] | b (slope) [1] | φ0 (chromatographic hydrophobic index) [1] | lipophilicity (in words) [1] | Compound | in vivo anti-inflammatory activity [2] | pain threshold [3] |
| --- | --- | --- | --- | --- | --- | --- | --- | --- |
| 0.032 | 2.217 | −0.226 | −0.027 | 81.22 | – | COc1ccc(-c2nc3scc(-c4ccc(C(F)(F)F)cc4)n3n2)cc1 [Compound 11a] | – | – |
| 0.056 | 1.810 | −0.309 | −0.022 | 82.63 | – | c1ccc(-c2nc3scc(-c4ccccc4)n3n2)cc1 [Compound 1a] | significantly reduced acute inflammation in vivo | increased pain threshold |
| 0.166 | 2.126 | −0.701 | −0.025 | 86.79 | – | COc1ccc(-c2csc3nc(-c4ccc(Cl)cc4)nn23)cc1 [Compound 8a] | – | – |
| 0.186 | 2.648 | −0.775 | −0.031 | 85.99 | – | FC(F)(F)c1ccc(-c2csc3nc(-c4ccc(Cl)cc4)nn23)cc1 [Compound 7a] | – | – |
| 0.178 | 2.131 | −0.743 | −0.024 | 87.32 | – | Clc1ccc(-c2nc3scc(-c4ccccc4)n3n2)cc1 [Compound 5a] | – | – |
| −0.504 | 1.534 | 1.694 | −0.026 | 60.16 | – | NS(=O)(=O)c1ccc(-c2nc3scc(-c4ccc(C(F)(F)F)cc4)n3n2)cc1 [Compound 15a] | – | – |
| 0.200 | 2.130 | −0.821 | −0.024 | 88.37 | high lipophilicity | Brc1ccc(-c2csc3nc(-c4ccccc4)nn23)cc1 [Compound 2a] | – | – |
| 0.168 | 2.132 | −0.711 | −0.025 | 87.00 | high lipophilicity | COc1ccc(-c2nc3scc(-c4ccc(Br)cc4)n3n2)cc1 [Compound 10a] | – | – |
| 0.174 | 2.507 | −0.730 | −0.029 | 85.86 | high lipophilicity | Brc1ccc(-c2cn3nc(-c4ccccc4)sc3n2)cc1 [Compound 2b] | – | – |
| 0.065 | 2.229 | −0.341 | −0.027 | 82.54 | – | FC(F)(F)c1ccc(-c2csc3nc(-c4ccccc4)nn23)cc1 [Compound 3a] | – | – |
| 0.324 | 2.582 | −1.267 | −0.028 | 91.57 | the most lipophilic compounds | Clc1ccc(-c2nc3scc(-c4ccc(Br)cc4)n3n2)cc1 [Compound 6a] | – | – |
| −0.529 | 0.864 | 1.788 | −0.017 | 49.68 | – | COc1ccc(-c2csc3nc(-c4ccc(S(N)(=O)=O)cc4)nn23)cc1 [Compound 16a] | – | – |
| −0.435 | 1.309 | 1.448 | −0.022 | 60.05 | – | NS(=O)(=O)c1ccc(-c2nc3scc(-c4ccc(Br)cc4)n3n2)cc1 [Compound 14a] | – | – |
